Reference: article PMC11129182, “Development of Inhibitors, Probes, and PROTAC Provides a Complete Toolbox to Study PARK7 in the Living Cell” (Journal of Medicinal Chemistry, 2024)
Read-outs that look alike come from different tables or passages of the source.

Columns and labels:
PARK7 [1] = biological target: T1, PARK7 (Homo sapiens, UniProt Q99497); test: Hit validation and pure-compound testing in the PARK7 FP assay with JYQ-107; format: biochemical; details: for inhibition at 0.25 µM: read-out: % Inhibition 0.25 µM; for inhibition at 0.5 µM: read-out: % Inhibition 0.5 µM
T1 sequence (Q99497 1-189): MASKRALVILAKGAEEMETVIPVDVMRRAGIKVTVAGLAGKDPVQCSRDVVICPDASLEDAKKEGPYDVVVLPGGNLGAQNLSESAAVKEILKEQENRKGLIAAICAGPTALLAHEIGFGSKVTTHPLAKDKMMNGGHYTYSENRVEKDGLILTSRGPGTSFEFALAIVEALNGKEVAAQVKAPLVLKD

PARK7 [2] = biological target: T1, PARK7; test: High-throughput screen of the crude compound library, PARK7 fluorescence polarization (FP) assay with FP reagent JYQ-107; format: biochemical; details: 1.25 µM, crude compound library; read-out: HTS FP assay %Inhibition (1.25 µM)

Row | SMILES | inhibition at 0.25 µM (PARK7 [1]; crude compounds) | inhibition at 0.5 µM (PARK7 [1]; crude compounds) | inhibition at 1 µM (PARK7 [1]; crude compounds) | inhibition at 1.25 µM (PARK7 [2]) | inhibition at 0.25 µM (PARK7 [1]; pure compounds) | inhibition at 1 µM (PARK7 [1]; pure compounds)
1 | Cc1nc(-c2cnn(C)c2)sc1C(=O)N1CCc2nc(NC(=O)[C@@H]3CCN(C#N)C3)sc2C1 [Compound 112] | 54.6% | 78% | 93.1% | 91.1% |  | 
2 | N#CN1CC[C@@H](C(=O)Nc2nc3c(s2)CN(C(=O)c2cccc(S(=O)(=O)NC4CC4)c2)CC3)C1 [Compound 59, (R)-1-Cyano-N-(5-(3-(N-cyclopropylsulfamoyl)benzoyl)-4,5,6,7-tetrahydrothiazolo[5,4-c]pyridin-2-yl)pyrrolidine-3-carboxamide] | 63.1% | 84.4% | 97.5% | 89.7% | 74.8% | 93.6%
3 | COc1ccc(C(=O)N2CCc3nc(NC(=O)[C@@H]4CCN(C#N)C4)sc3C2)cc1S(=O)(=O)N1CCCCCC1 [Compound 133, (R)-N-(5-(3-(Azepan-1-ylsulfonyl)-4-methoxybenzoyl)-4,5,6,7-tetrahydrothiazolo[5,4-c]pyridin-2-yl)-1-cyanopyrrolidine-3-carboxamid] | 76.3% | 89.1% | 98.8% | 90.8% | 77.9% | 95.4%
4 | N#CN1CC[C@@H](C(=O)Nc2nc3c(s2)CN(C(=O)c2ccc(Cn4cc(Br)cn4)o2)CC3)C1 [Compound 140] | 36.9% | 62.1% | 85.7% | 90.7% |  | 
5 | N#CN1CC[C@@H](C(=O)Nc2nc3c(s2)CN(C(=O)c2cnn(-c4cccc(Br)c4)c2)CC3)C1 [Compound 156] | 50.5% | 79.8% | 94.7% | 92.6% |  | 
6 | N#CN1CC[C@@H](C(=O)Nc2nc3c(s2)CN(C(=O)C2CC(=O)N(C4CCCCCC4)C2)CC3)C1 (stereo partly drawn) [Compound 163] | 43.1% | 70.9% | 90.3% | 89.6% |  | 

Other lines, results leading:

Row | inhibition at 0.25 µM (PARK7 [1]; crude compounds) | inhibition at 0.5 µM (PARK7 [1]; crude compounds) | inhibition at 1 µM (PARK7 [1]; crude compounds) | inhibition at 1.25 µM (PARK7 [2]) | inhibition at 0.25 µM (PARK7 [1]; pure compounds) | inhibition at 1 µM (PARK7 [1]; pure compounds) | SMILES
7 | 51.5% | 72.7% | 92.5% | 89.6% |  |  | Cn1cc(-c2cc(C(=O)N3CCc4nc(NC(=O)[C@@H]5CCN(C#N)C5)sc4C3)n[nH]2)cn1 [Compound 337]
8 | 48.2% | 75.6% | 94.4% | 95.1% |  |  | N#CN1CC[C@@H](C(=O)Nc2nc3c(s2)CN(C(=O)c2cc(C4CCCCC4)[nH]n2)CC3)C1 [Compound 164]
9 | 65.1% | 87.4% | 96.7% | 96.4% |  |  | N#CN1CC[C@@H](C(=O)Nc2nc3c(s2)CN(C(=O)c2cnn(-c4ccc(Br)cc4)c2)CC3)C1 [Compound 219]
10 | 44% | 66.5% | 91.2% | 90% |  |  | Cc1c[nH]c(=O)n1-c1cccc(C(=O)N2CCc3nc(NC(=O)[C@@H]4CCN(C#N)C4)sc3C2)c1 [Compound 315]
11 | 18.8% | 50.2% | 83.4% | 90.8% |  |  | N#CN1CC[C@@H](C(=O)Nc2nc3c(s2)CN(C(=O)c2coc(C#Cc4ccccc4)c2)CC3)C1 [Compound 311]
12 | 52.1% | 78.4% | 93.3% | 91.5% |  |  | N#CN1CC[C@@H](C(=O)Nc2nc3c(s2)CN(C(=O)c2cccc(Cn4ccnc4)c2)CC3)C1 [Compound 215]
13 | 82.4% | 96.1% | 96.8% | 94.2% |  |  | N#CN1CC[C@@H](C(=O)Nc2nc3c(s2)CN(C(=O)c2cc(-n4cccc4)ccn2)CC3)C1 [Compound 279]
14 | 43.8% | 75.1% | 93% | 98.2% |  |  | N#CN1CC[C@@H](C(=O)Nc2nc3c(s2)CN(C(=O)c2cnn(-c4ccc(C(F)(F)F)cc4)c2)CC3)C1 [Compound 314]
